Measured values published in US20100204276A1, “INDOLE COMPOUNDS, A PROCESS FOR THEIR PREPARATION AND PHARMACEUTICAL COMPOSITIONS CONTAINING THEM” (LES LABORATOIRES SERVIER, priority 2006, published 2010).

Tests used:
MT1 receptor = MT1 receptor (Homo sapiens, UniProt P48039); assay: Melatonin MT1 receptor binding study (2-[125I]-iodomelatonin competition); conditions: 2-[125I]-iodomelatonin as radioligand, triplicate
Method: (§1) The MT1 or MT2 receptor binding experiments are carried out using 2-[^125I]-iodomelatonin as reference radioligand. The radioactivity retained is determined using a liquid scintillation counter.
(§2) Competitive binding experiments are then carried out in triplicate using the various test compounds. A range of different concentrations is tested for each compound. The results enable the binding affinities (Ki) of the compounds tested to be determined.

MT2 receptor = molecular target: T1, MT2 receptor (Homo sapiens, UniProt P49286); assay: Melatonin MT2 receptor binding study (2-[125I]-iodomelatonin competition); conditions: 2-[125I]-iodomelatonin as radioligand, triplicate
T1 sequence (P49286 1-362): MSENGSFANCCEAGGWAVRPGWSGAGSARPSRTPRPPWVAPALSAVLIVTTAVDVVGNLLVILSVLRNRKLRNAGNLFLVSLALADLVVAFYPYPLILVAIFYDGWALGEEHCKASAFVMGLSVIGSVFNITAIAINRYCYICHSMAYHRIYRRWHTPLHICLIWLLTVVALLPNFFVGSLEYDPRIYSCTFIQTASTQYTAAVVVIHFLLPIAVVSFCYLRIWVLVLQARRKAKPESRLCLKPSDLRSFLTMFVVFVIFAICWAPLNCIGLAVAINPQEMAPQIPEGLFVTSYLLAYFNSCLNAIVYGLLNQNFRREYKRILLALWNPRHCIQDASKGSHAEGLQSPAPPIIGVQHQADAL
Method: as §1, §2

Chain of MT1 receptor (P48039 whole entry): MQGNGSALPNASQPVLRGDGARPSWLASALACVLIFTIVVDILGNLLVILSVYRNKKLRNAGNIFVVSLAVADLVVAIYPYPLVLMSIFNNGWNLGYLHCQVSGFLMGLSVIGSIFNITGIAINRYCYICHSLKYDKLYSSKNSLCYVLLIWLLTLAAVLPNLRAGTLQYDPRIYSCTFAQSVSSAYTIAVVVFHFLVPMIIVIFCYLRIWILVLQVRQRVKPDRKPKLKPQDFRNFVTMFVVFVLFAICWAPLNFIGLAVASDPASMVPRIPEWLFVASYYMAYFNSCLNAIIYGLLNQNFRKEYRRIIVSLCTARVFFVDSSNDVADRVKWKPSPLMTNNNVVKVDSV

Ki (MT1 receptor): 11 nM | Ki (MT2 receptor): 19 nM | melting point: 113 to 114 °C
SMILES: CCCC(=O)NCCc1c[nH]c2ccc(OCCN3CCCCC3)cc12 [Example 3, N-(2-{5-[2-(1-piperidinyl)ethoxy]-1H-indol-3-yl}ethyl)butanamide]
